# Test results published in patent US20250011307A1, “CRYSTALLINE FORMS OF BIARYL YAP/TAZ-TEAD PROTEIN-PROTEIN INTERACTION INHIBITORS” (Novartis AG, priority 2021, published 2025).
# Counter-ions that a name gives are not always drawn.
# Columns and labels:
# Type in all cases: physicochemical
# [1] = Xenon light stress test of bulk (HPLC degradation products, color, XRPD); design: key to CL color: A: No change; B: Slight discoloration; C: Medium discoloration; D: Strong discoloration; conditions: Xenon light (1200 kLuxh, 25° C.)
# Method: (§1) X-ray powder diffraction (XRPD) patterns were obtained using a Bruker Advance D8 in reflection geometry. Powders were analyzed using a zero background Si flat sample holder. The radiation used was Cu Kα (A=1.5418 Å). Patterns were measured between 2° and 40° 2theta. • Sample amount: 5-10 mg • Sample holder: zero background Si flat sample holder
# as §1, with “radiation” for “radiation used”, “(λ=1.5418” for “(A=1.5418”
# [2] = Solubility after equilibration at 25° C. for 24 h, with final pH and XRPD of solid residues
# [3] = Hygroscopicity (loss on drying by TGA and XRPD, as is and after storage at 92% / 80% RH); conditions: for XRPD / Loss on drying by TGA [%]: Compound A forms; for Loss on drying by TGA [%]: TGA temperature per cell: Modification A 110° C., amorphous 119° C., 4-hydroxybenzoate 200° C.; for Loss on drying by TGA: Compound B forms, TGA temperature per cell: free form @233° C., succinate @205° C., L-malate @200° C., L-lactate @200° C.
# [4] = Solid state bulk stability stress test (HPLC degradation products, color, XRPD); design: key to CL color: A: No change; B: Slight discoloration; C: Medium discoloration; D: Strong discoloration
# [5] = Excipient compatibility stress test (HPLC degradation products, color); design: key to CL color: A: No change; B: Slight discoloration; C: Medium discoloration; D: Strong discoloration; conditions: Compound B forms
# [6] = Compound A forms, 2 weeks 50° C./75% RH
# [7] = Compound A forms, 2 weeks 80° C., 11% RH
# [8] = Compound A forms, 2 weeks 80° C./75% RH
# [9] = Compound B forms, clear quartz vial
# [10] = 2 weeks 50° C./75% RH, 1% in HGC powder
# [11] = 2 weeks 50° C./75% RH, 1% in HPMC powder
# [12] = 2 weeks 50° C./closed, 1% in HGC powder
# [13] = 2 weeks 50° C./closed, 1% in HPMC powder
# [14] = Compound B forms, 2 weeks 50° C./75% RH
# [15] = Compound B forms, 2 weeks 80° C./11% RH
# [16] = Compound B forms, 2 weeks 80° C./75% RH
structure (smiles),measurement,setting,value
"CNC(=O)c1cnc(OCCO)c(F)c1-c1c(Cl)c(F)cc2c1C[C@](c1ccccc1)([C@@H]1CCCN1)O2 [Compound A Free form amorphous, 4-((2S,4S)-5-Chloro-6-fluoro-2-phenyl-2-((S)-pyrrolidin-2-yl)-2,3-dihydrobenzofuran-4-yl)-5-fluoro-6-(2-hydroxyethoxy)-N-methylnicotinamide]",Bulk amber vial (XRPD),"[1]; Compound A forms, amber vial",No change
same,CL color,"[1]; Compound A forms, amber vial",A
same,"DP[%] degradation products, Bulk amber vial (HPLC)","[1]; Compound A forms, amber vial",1.0%
same,Bulk clear vial (XPRD),"[1]; Compound A forms, clear vial",No change
same,CL color,"[1]; Compound A forms, clear vial",B
same,"DP[%] degradation products, Bulk clear vial (HPLC)","[1]; Compound A forms, clear vial",7.4%
same,final pH,"[2]; Compound A forms, FaSSIF V2 pH 6.5",(7.98)
same,Sol. (solubility),"[2]; Compound A forms, FaSSIF V2 pH 6.5, target concentration 20 mg/10 mL",">2, mg/mL"
same,final pH,"[2]; Compound A forms, FeSSIF V2 pH 5.8",(5.93)
same,Sol. (solubility),"[2]; Compound A forms, FeSSIF V2 pH 5.8, target concentration 20 mg/10 mL",>2 mg/mL
same,final pH,"[2]; Compound A forms, SGF pH 2.0",(2.37)
same,Sol. (solubility),"[2]; Compound A forms, SGF pH 2.0, target concentration 20 mg/10 mL",">2, mg/mL"
same,final pH,"[2]; Compound A forms, Water",(9.26)
same,Sol. (solubility),"[2]; Compound A forms, Water, target concentration 20 mg/10 mL","0.28, mg/mL"
same,final pH,"[2]; Compound A forms, pH 1.2, 100 mM HCl",(1.19)
same,Sol. (solubility),"[2]; Compound A forms, pH 1.2, 100 mM HCl, target concentration 20 mg/10 mL",>2 mg/mL
same,final pH,"[2]; Compound A forms, pH 3.0, 50 mM citrate buffer",(3.13)
same,Sol. (solubility),"[2]; Compound A forms, pH 3.0, 50 mM citrate buffer, target concentration 20 mg/10 mL",">2, mg/mL"
same,final pH,"[2]; Compound A forms, pH 4.7, 50 mM acetate buffer",(4.89)
same,Sol. (solubility),"[2]; Compound A forms, pH 4.7, 50 mM acetate buffer, target concentration 20 mg/10 mL",">2, mg/mL"
same,final pH,"[2]; Compound A forms, pH 6.8, 50 mM phosphate buffer",(6.97)
same,final pH,"[2]; Compound A forms, pH 6.8, 50 mM phosphate buffer with 50 mM Na taurocholate",(6.87)
same,Sol. (solubility),"[2]; Compound A forms, pH 6.8, 50 mM phosphate buffer with 50 mM Na taurocholate, target concentration 20 mg/10 mL",">2, mg/mL"
same,Sol. (solubility),"[2]; Compound A forms, pH 6.8, 50 mM phosphate buffer, target concentration 20 mg/10 mL",">2, mg/mL"
same,XRPD,[3]; After 1 day at 80% RH,No change
same,Loss on drying by TGA [%],[3]; After 1 day at 80% RH,2.0% (119° C.)
same,XRPD,[3]; After 1 day at 92% RH,No change
same,Loss on drying by TGA [%],[3]; After 1 day at 92% RH,2.5% (119° C.)
same,Loss on drying by TGA [%],"[3]; Hygroscopicity, before RH storage",1.1% (119° C.)
same,Bulk (XRPD),[4]; [6],No change
same,CL color,[4]; [6],A
same,"DP[%] degradation products, Bulk (HPLC)",[4]; [6],2.1%
same,Bulk (XRPD),[4]; [7],No change
same,CL color,[4]; [7],A
same,"DP[%] degradation products, Bulk (HPLC)",[4]; [7],5.5%
same,Bulk (XRPD),[4]; [8],gel
same,"DP[%] degradation products, Bulk (HPLC)",[4]; [8],15.3%
"CNC[C@]1(c2ccccc2)Oc2cc(F)c(Cl)c(-c3c(C(N)=O)ccc(OC)c3F)c2[C@@H]1C [Compound B Succinate salt, 2-((2S,3S,4S)-5-Chloro-6-fluoro-3-methyl-2-((methylamino)methyl)-2-phenyl-2,3-dihydrobenzofuran-4-yl)-3-fluoro-4-methoxybenzamide]",Bulk amber vial (XRPD),"[1]; Compound B forms, amber vial",No change
same,CL color,"[1]; Compound B forms, amber vial",A
same,"DP[%] degradation products, Bulk amber vial (HPLC)","[1]; Compound B forms, amber vial",0.13%
same,Bulk clear quartz vial (XRPD),[1]; [9],No change
same,CL color,[1]; [9],B
same,"DP[%] degradation products, Bulk clear quartz vial (HPLC)",[1]; [9],2.38%
same,CL color,[5]; [10],A
same,DP[%] degradation products,[5]; [10],0.25%
same,CL color,[5]; [11],A
same,DP[%] degradation products,[5]; [11],0.99%
same,CL color,[5]; [12],A
same,DP[%] degradation products,[5]; [12],0.15%
same,CL color,[5]; [13],A
same,DP[%] degradation products,[5]; [13],0.17%
same,final pH,"[2]; Compound B forms, Blank FaSSIF",[6.06]
same,Sol. (solubility),"[2]; Compound B forms, Blank FaSSIF, target concentration 2 mg/mL",>2 mg/mL
same,final pH,"[2]; Compound B forms, FaSSIF V2 pH 6.5",[6.06]
same,Sol. (solubility),"[2]; Compound B forms, FaSSIF V2 pH 6.5, target concentration 2 mg/mL",>2 mg/mL
same,final pH,"[2]; Compound B forms, FeSSIF V2 pH 5.8",[5.72]
same,Sol. (solubility),"[2]; Compound B forms, FeSSIF V2 pH 5.8, target concentration 2 mg/mL",>2 mg/mL
same,final pH,"[2]; Compound B forms, SGF pH 2.0",[2.20]
same,Sol. (solubility),"[2]; Compound B forms, SGF pH 2.0, target concentration 2 mg/mL",>2 mg/mL
same,final pH,"[2]; Compound B forms, Water",[4.97]
same,Sol. (solubility),"[2]; Compound B forms, Water, target concentration 2 mg/mL",>2 mg/mL
same,final pH,"[2]; Compound B forms, pH 1.2, 100 mM HCl",[1.17]
same,Sol. (solubility),"[2]; Compound B forms, pH 1.2, 100 mM HCl, target concentration 2 mg/mL",>2 mg/mL
same,final pH,"[2]; Compound B forms, pH 3.0, 50 mM citrate buffer",[3.09]
same,Sol. (solubility),"[2]; Compound B forms, pH 3.0, 50 mM citrate buffer, target concentration 2 mg/mL",>2 mg/mL
same,final pH,"[2]; Compound B forms, pH 4.7, 50 mM acetate buffer",[4.70]
same,Sol. (solubility),"[2]; Compound B forms, pH 4.7, 50 mM acetate buffer, target concentration 2 mg/mL",>2 mg/mL
same,final pH,"[2]; Compound B forms, pH 6.8, 50 mM phosphate buffer",[6.64]
same,final pH,"[2]; Compound B forms, pH 6.8, 50 mM phosphate buffer with 50 mM Na taurocholate",[6.43]
same,Sol. (solubility),"[2]; Compound B forms, pH 6.8, 50 mM phosphate buffer with 50 mM Na taurocholate, target concentration 2 mg/mL",>2 mg/mL
same,Sol. (solubility),"[2]; Compound B forms, pH 6.8, 50 mM phosphate buffer, target concentration 2 mg/mL",>2 mg/mL
same,Loss on drying by TGA,[3]; After 1 day at 92% RH,0.67%@205 °C
same,Loss on drying by TGA,"[3]; Hygroscopicity, As is",0.56%@205 °C
same,Bulk (XRPD),[4]; [14],No change
same,CL color,[4]; [14],A
same,"DP[%] degradation products, Bulk (HPLC)",[4]; [14],0.09%
same,Bulk (XRPD),[4]; [15],No change
same,CL color,[4]; [15],A
same,"DP[%] degradation products, Bulk (HPLC)",[4]; [15],0.08%
same,Bulk (XRPD),[4]; [16],No change
same,CL color,[4]; [16],A
same,"DP[%] degradation products, Bulk (HPLC)",[4]; [16],0.17%
